This passage reports carcinogen call results from PubChem BioAssay AID1259411 (Chemical Carcinogenesis Research Information System (CCRIS), 2018).

For the series, the system named is rodent carcinogenicity bioassays, tumor incidence. Description: CCRIS carcinogenicity studies. The following applies: Dose: 0, Dose: 0. Put shortly:
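Archive of carcinogenicity, mutagenicity, tumor promotion and tumor inhibition results drawn from journals, NCI reports and other sources, expert-reviewed; covers 1985-2011 and is no longer updated.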

The source made the active and inactive calls. The rule behind the calls is not given here.

Regarding `N#Cc1c(Cl)c(Cl)c(Cl)c(C#N)c1Cl`, the carcinogen call runs as follows: (Species: MOUSE, Strain/Sex: B6C3F1/FEMALE, Route: ORAL, 3000, 6000 PPM IN DIET, TWA, 3000, 6000 PPM IN DIET, TWA) “inactive; negative”; (Species: MOUSE, Strain/Sex: B6C3F1/MALE, Route: ORAL, 2688, 5375 PPM IN DIET, TWA, 2688, 5375 PPM IN DIET, TWA) “inactive; negative”; (Species: Mouse, Strain/Sex: CD-1/Female (60 per group), Route: Oral, 750, 1,500, 3,000 ppm in diet for 2 yr, 750, 1,500, 3,000 ppm in diet for 2 yr, Tumor Site: Type of Lesion: Forestomach: Squamous cell papillomas or carcinomas (0, 2, 6, 5), No dose response) “active; positive (ca dpr describes as possible adverse effect; study details not given i”; (Species: Mouse, Strain/Sex: CD-1/Male (60 per group), Route: Oral, 750, 1,500, 3,000 ppm in diet for 2 yr, 750, 1,500, 3,000 ppm in diet for 2 yr, Tumor Site: Type of Lesion: Kidney: renal tubular adenoma or carcinoma (0, 6, 4, 4). Forestomach: Squamous cell papillomas or carcinomas (0, 2, 5, 2) “active; positive without dose response (ca dpr describes as possible adverse effect); st”; (Species: RAT, Strain/Sex: OSBORNE-MENDEL/FEMALE, Route: ORAL, 5063, 10126 PPM IN DIET, TWA, 5063, 10126 PPM IN DIET, TWA, Tumor Site: Type of Lesion: KIDNEY: ADENOMA OR CARCINOMA (NOS) OR TUBULAR CELL ADENOMA OR TUBULAR CELL ADENOCARCINOMA) “active; positive”; (Species: RAT, Strain/Sex: OSBORNE-MENDEL/MALE, Route: ORAL, 5063, 10126 PPM IN DIET, TWA, 5063, 10126 PPM IN DIET, TWA, Tumor Site: Type of Lesion: KIDNEY: CARCINOMA (NOS) OR TUBULAR CELL ADENOMA OR TUBULAR CELL ADENOCARCINOMA OR ADENOCARCINOMA OR PAPILLARY ADENOMA) “active; positive”. The carcinogen call was “active; positive (study details not given in source)” (Species: Rat, Strain/Sex: Fischer 344/Female (55 per group), Route: Oral, 1.8, 3.8, 15.2, 183 mg/kg/day in diet for 125 wks, 1.8, 3.8, 15.2, 183 mg/kg/day in diet for 125 wks, Tumor Site: Type of Lesion: Kidney: Renal tubular adenomas and carcinomas (0, 0, 0, 0, 32 in 53-55 animals). Forestomach: Papillomas and carcinomas); “active; positive (study details not given in source)” (Species: Rat, Strain/Sex: Fischer 344/Male (55 per group), Route: Oral, 1.8, 3.8, 15.2, 183 mg/kg/day in diet for 99 wks (high dose) or 111 wk (all others), 1.8, 3.8, 15.2, 183 mg/kg/day in diet for 99 wks (high dose) or 111 wk (all others), Tumor Site: Type of Lesion: Kidney: Renal tubular adenomas and carcinomas (1, 1, 1, 4, 23 in 53-55 animals) Forestomach: Papillomas and carcinomas (); “inactive; negative (ca dpr describes as possible adverse effect; study details not given i” (Species: Rat, Strain/Sex: Sprague-Dawley/Female (50 per group), Route: Oral, 15, 60, 240, 1,200 mg/kg/day in diet for 2 yr, 15, 60, 240, 1,200 mg/kg/day in diet for 2 yr, Tumor Site: Type of Lesion: Forestomach: Papillomas or carcinomas (0, 0, 0, 2, 1), Not significant); “active; positive at highest dose (ca dpr describes as possible adverse effect; study det” (Species: Rat, Strain/Sex: Sprague-Dawley/Male (50 per group), Route: Oral, 15, 60, 240, 1,200 mg/kg/day in diet for 2 yr, 15, 60, 240, 1,200 mg/kg/day in diet for 2 yr, Tumor Site: Type of Lesion: Forestomach: Papillomas or carcinomas (0, 0, 0, 0, 3), Borderline significance).
For `O=C(O)c1cc2ccccc2c(N=Nc2ccc3ccccc3c2S(=O)(=O)O)c1O`, the carcinogen call is “inactive; negative” (Species: MOUSE, Strain/Sex: SWISS-WEBSTER/FEMALE, Route: DERMAL, 1% IN 0.1 ML 0.1% SODIUM LAURYL SULFATE 1/WK FOR 18 MO (STUDY DURATION: 18 MO)) and “inactive; negative” (Species: MOUSE, Strain/Sex: SWISS-WEBSTER/MALE, Route: DERMAL, 1% IN 0.1 ML 0.1% SODIUM LAURYL SULFATE 1/WK FOR 18 MO (STUDY DURATION: 18 MO)).
Take `Cc1c2ccccc2c(COS(=O)(=O)O)c2ccc3ccccc3c12`: the carcinogen call reads like this: (Species: MOUSE, Strain/Sex: B6C3F1/MALE, Route: INTRAPERITONEAL, 0.001, 0.003, 0.01 UMOL/G IN 5 µL/G DMSO ONCE ON D 12 OF AGE (STUDY DURATION: 10 MO), 0.001, 0.003, 0.01 UMOL/G IN 5 µL/G DMSO ONCE ON D 12 OF AGE (STUDY DURATION: 10 MO), Tumor Site: Type of Lesion: LIVER: HEPATOMA) “active; positive”; (Species: MOUSE, Strain/Sex: B6C3F1/MALE, Route: INTRAPERITONEAL, 0.0025 UMO1/G IN 10 ML/G TRIOCTANOIN ON 12, 16, 20, AND 24 D OF AGE (STUDY DURATION: 10 MO), Tumor Site: Type of Lesion: LIVER: HEPATOMA) “active; positive”; (Species: MOUSE, Strain/Sex: B6C3F1/MALE, Route: INTRAPERITONEAL, 0.0025 UMOL/G IN 10 µL/G TRIOCTANOIN ONCE ON D 12 OF AGE (STUDY DURATION: 10 MO), Tumor Site: Type of Lesion: LIVER: HEPATOMA) “active; positive”; (Species: MOUSE, Strain/Sex: STRAIN-A/FEMALE, Route: INTRAPERITONEAL, 0.1 001;0.003, 0.01 UMOL/G IN 5 µL DMSO/G ONCE AT 4-6 WK OF AGE (STUDY DURATION: 6 MO), 0.1 001;0.003, 0.01 UMOL/G IN 5 µL DMSO/G ONCE AT 4-6 WK OF AGE (STUDY DURATION: 6 MO)) “inactive; negative”; (Species: RAT, Strain/Sex: SPRAGUE-DAWLEY/FEMALE, Route: SUBCUTANEOUS, 0.2 UMOL 3/WK FOR 20 DOSES (STUDY DURATION: 52 WK), Tumor Site: Type of Lesion: INJECTION SITE: SARCOMA) “active; positive”; (Species: RAT, Strain/Sex: SPRAGUE-DAWLEY/FEMALE, Route: SUBCUTANEOUS, 2 UMOL IN 0.25 ML TRIOCTANOIN INTO LEFT HIND LEG AT ABOUT 40 D OF AGE FOLLOWED BY A SECOND DOSE 6 D LATER (STUDY DURA) “inactive; negative”. The carcinogen call (Species: RAT, Strain/Sex: SPRAGUE-DAWLEY/FEMALE, Route: SUBCUTANEOUS, 2 UMOL IN 0.25 ML TRIOCTANOIN ONCE INTO LEFT HIND LEG AT ABOUT 40 D OF AGE (STUDY DURATION: 16 MO)) is “inactive; negative”.
Regarding `F`, the carcinogen call by setting is: (Species: MOUSE, Strain/Sex: B6C3F1/FEMALE, Route: ORAL, 25, 100, 175 PPM IN DRINKING WATER FOR 103 WK (STUDY DURATION: 103 WK), 25, 100, 175 PPM IN DRINKING WATER FOR 103 WK (STUDY DURATION: 103 WK)) “inactive; negative”; (Species: MOUSE, Strain/Sex: B6C3F1/MALE, Route: ORAL, 25, 100, 175 PPM IN DRINKING WATER FOR 103 WK (STUDY DURATION: 103 WK), 25, 100, 175 PPM IN DRINKING WATER FOR 103 WK (STUDY DURATION: 103 WK)) “inactive; negative”; (Species: MOUSE, Strain/Sex: F344/MALE, Route: ORAL, 25, 100, 175 PPM IN DRINKING WATER FOR 103 WK (STUDY DURATION: 103 WK), 25, 100, 175 PPM IN DRINKING WATER FOR 103 WK (STUDY DURATION: 103 WK), Tumor Site: Type of Lesion: BONE: OSTEOSARCOMA) “equivocal”; (Species: RAT, Strain/Sex: F344/FEMALE, Route: ORAL, 25, 100, 175 PPM IN DRINKING WATER FOR 103 WK (STUDY DURATION: 103 WK), 25, 100, 175 PPM IN DRINKING WATER FOR 103 WK (STUDY DURATION: 103 WK)) “inactive; negative”; (Species: RAT, Strain/Sex: SPRAGUE-DAWLEY/FEMALE, Route: ORAL, 4, 10, 25 MG/KG/D ADDED TO LOW-FLUORIDE DIET FOR DURATION OF STUDY (STUDY DURATION: 99 WK), 4, 10, 25 MG/KG/D ADDED TO LOW-FLUORIDE DIET FOR DURATION OF STUDY (STUDY DURATION: 99 WK)) “inactive; negative”; (Species: RAT, Strain/Sex: SPRAGUE-DAWLEY/MALE, Route: ORAL, 4, 10, 25 MG/KG/D ADDED TO LOW-FLUORIDE DIET FOR DURATION OF STUDY (STUDY DURATION: 95 WK), 4, 10, 25 MG/KG/D ADDED TO LOW-FLUORIDE DIET FOR DURATION OF STUDY (STUDY DURATION: 95 WK)) “inactive; negative”.
